Assay results published in patent publication US20170280720A1, “ARGININE […] INHIBITORS AND USES THEREOF” (EPIZYME, INC., priority 2014, published 2017).
Counter-ions that a name gives are not always drawn.

target: T1, Human CARM1 (PRMT4) (Homo sapiens, UniProt Q86X55); assay: CARM1 biochemical assay (3H-SAM Flashplate, peptide substrate); details: read-out: CARM1_ IC50
T1 construct: Flag-CARM1-His; made in house; host or cells: HEK 293F cells (BacMam baculovirus, pFastBacMam)
T1 sequence (Q86X55 2-585 isoform Q86X55-1): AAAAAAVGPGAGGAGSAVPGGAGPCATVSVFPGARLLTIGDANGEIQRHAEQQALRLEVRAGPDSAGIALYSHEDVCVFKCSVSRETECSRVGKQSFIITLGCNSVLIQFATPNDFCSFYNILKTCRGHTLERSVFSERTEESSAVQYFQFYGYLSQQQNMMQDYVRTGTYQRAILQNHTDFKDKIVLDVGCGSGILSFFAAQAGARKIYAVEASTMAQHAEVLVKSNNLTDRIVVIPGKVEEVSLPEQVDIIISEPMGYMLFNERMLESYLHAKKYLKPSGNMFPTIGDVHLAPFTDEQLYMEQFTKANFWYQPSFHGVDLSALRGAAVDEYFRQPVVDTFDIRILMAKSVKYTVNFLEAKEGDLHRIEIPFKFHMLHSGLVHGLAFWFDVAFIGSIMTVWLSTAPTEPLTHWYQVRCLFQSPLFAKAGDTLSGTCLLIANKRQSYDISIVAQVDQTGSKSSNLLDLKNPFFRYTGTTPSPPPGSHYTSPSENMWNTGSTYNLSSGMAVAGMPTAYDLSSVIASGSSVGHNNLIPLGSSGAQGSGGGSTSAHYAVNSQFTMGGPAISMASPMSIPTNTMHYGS
Method in brief: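 FLAG/His-tagged human CARM1 (isoform 1, Δ539-561, baculovirus-expressed), 0.25 nM, preincubated 30 min at room temperature with compound (2% DMSO) in 20 mM Bicine pH 7.6, then reacted with 30 nM 3H-SAM and 250 nM biotinylated H3 16-30 peptide (R26 monomethyl). Stopped with 300 uM cold SAM; labelled peptide captured on streptavidin Flashplate; % inhibition versus DMSO and 1 mM SAH controls fitted to a 4- or 3-parameter curve.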

Row | SMILES | IC50 [nM]
1 | CC(C)n1ncc2c(C(=O)N(C)[C@@H](C)c3ccccc3)cc(-c3cccc(CN(C)CCN)c3)cc21 [Compound 3] | 46
2 | CNCCN(C)Cc1cccc(-c2cnc3c(c2)c(C2CC2)nn3CC2CCOCC2)c1 [Compound 4] | 1400
3 | CN(CCN)Cc1cccc(-c2nc(NCc3cn4ccsc4n3)c3cnn(C4CC4)c3n2)c1 [Compound 5] | 3.24
4 | CNCCN(C)Cc1cccc(-c2nc(NCc3cn4ccsc4n3)c3cnn(C4CC4)c3n2)c1 [Compound 6] | 23.8
5 | Cc1c(C(=O)NCc2ccccc2)cc(-c2ccc(CN(C)CCN)cc2)c2cn[nH]c12 [Compound 7] | 6830
6 | COc1cccc(Cn2cnc3ccc(-c4ccc(CN(C)CCN)cc4)cc32)c1 [Compound 8] | 3870
7 | CNCCN(C)Cc1cccc(-c2nc(NCc3ccccn3)c3cnn(C4CC4)c3n2)c1 [Compound 9] | 7.59
8 | CCC(O)c1cc(-c2cccc(CN(C)CCNC)c2)nc2c1cnn2C(C)C (centres unmarked) [Compound 48] | 154
9 | CNCCN(C)Cc1cccc(-c2cc(-c3cnn(C)c3)c3cnn(C(C)C)c3n2)c1 [Compound 49, N1-(3-(1-isopropyl-4-(1-methyl-1H-pyrazol-4-yl)-1H-pyrazolo[3,4-b]pyridin-6-yl)benzyl)-N1,N2-dimethylethane-1,2-diamine] | 12.4
10 | CNCCN(C)Cc1cccc(-c2cc(N3CCC(C(F)(F)F)CC3)c3cnn(C(C)C)c3n2)c1 [Compound 50] | 27.6
11 | CNCCN(C)Cc1cccc(-c2cc(N3CCC(OC)CC3)c3cnn(C(C)C)c3n2)c1 [Compound 51] | 16.7
12 | Cc1c(CNc2nc(-c3cccc(CN(C)CCN)c3)nc3c2cnn3C2CC2)cnn1C [Compound 52] | 4.04
13 | CCOc1cc(-c2cccc(CN(C)CCNC)c2)nc2c1cnn2C(C)C [Compound 53] | 19.9
14 | CC(C)n1ncc2c(C(=O)NCc3ccccc3Cl)cc(-c3cccc(CN(C)CCN)c3)nc21 [Compound 54] | 26.1
15 | CNCCN(C)Cc1cccc(-c2cc(N3CCCC(C#N)C3)c3cnn(C(C)C)c3n2)c1 (centres unmarked) [Compound 55] | 35.5
16 | CNCCN(C)Cc1cccc(-c2cc(C(=O)N3CCCCC3)c3cnn(C(C)C)c3n2)c1 [Compound 56] | 219
17 | CNCCN(C)Cc1cccc(-c2nc(NCc3cnn(C)c3C)c3cnn(C4CC4)c3n2)c1 [Compound 57] | 18.5
18 | CNCCN(C)Cc1cccc(-c2cc(NC3COC3)c3cnn(C(C)C)c3n2)c1 [Compound 58] | 22.2
19 | CC(C)n1cc2c(Cl)cc(-c3cccc(CN(C)CCN)c3)nc2n1 [Compound 59] | 707

Row | SMILES | IC50 [nM]
20 | CNCCN(C)Cc1cccc(-c2cc(C(=O)NCCCC(=O)NCC3CCOCC3)c3cnn(C(C)C)c3n2)c1 [Compound 60] | 17.2
21 | CC(C)n1ncc2c(N3CCOCC3)cc(-c3cccc(CN(C)CCN)c3)nc21 [Compound 61, N1-(3-(1-isopropyl-4-morpholino-1H-pyrazolo[3,4-b]pyridin-6-yl)benzyl)-N1-methylethane-1,2-diamine] | 5.22
22 | CNCCN(C)Cc1cccc(-c2cc(N3CCOCC3)n3ncc(C(C)C)c3n2)c1 [Compound 62, N1-(3-(3-isopropyl-7-morpholinopyrazolo[1,5-a]pyrimidin-5-yl)benzyl)-N1,N2-dimethylethane-1,2-diamine formate] | 20.8
23 | CNCCN(C)Cc1cccc(-c2nc(NCc3cccnc3)c3cnn(C4CC4)c3n2)c1 [Compound 63] | 17
24 | CNCCN(C)Cc1cccc(-c2cc(C(=O)NCCC(=O)NCC3CCOCC3)c3cnn(C(C)C)c3n2)c1 [Compound 64] | 24.9
25 | CC(C)n1ncc2c(C(=O)NCc3ccccc3F)cc(-c3cccc(CN(C)CCN)c3)nc21 [Compound 65] | 8.39
26 | CN(CCN)Cc1cccc(-c2nc(NCc3ccncc3)c3cnn(C4CC4)c3n2)c1 [Compound 66] | 6.32
27 | CNCCN(C)Cc1cccc(-c2cc(-c3ccoc3)c3cnn(C(C)C)c3n2)c1 [Compound 67] | 28.1
28 | CNCCN(C)Cc1cccc(-c2cc(N3CCOCC3)c3cnn(C(C)C)c3n2)c1 [Compound 68] | 9.84
29 | CNCCN(C)Cc1cccc(-c2nc(NCc3ccncc3)c3cnn(C4CC4)c3n2)c1 [Compound 69] | 19.5
30 | NCCNCc1ccc(-c2ccc3ncn(CC4CCNCC4)c3c2)cc1 [Compound 70] | 11700
31 | COC(=O)Nc1cc(-c2cccc(CN(C)CCN)c2)nc2c1cnn2C(C)C [Compound 71] | 10.6
32 | CCNc1cc(-c2cccc(CN(C)CCNC)c2)nc2c1cnn2C(C)C [Compound 72] | 109
33 | CNCCN(C)Cc1cccc(-c2ccc3cnn(C(C)C)c3n2)c1 [Compound 73] | 381
34 | CNCCN(C)Cc1cccc(-c2cc(C#N)c3cnn(C(C)C)c3n2)c1 [Compound 74] | 38.4
35 | CNCCN(C)Cc1cccc(-c2ccc3nc[nH]c3c2)c1 [Compound 75] | 10000
36 | CNCCN(C)Cc1cccc(-c2cc(NC3CCOCC3)c3cnn(C(C)C)c3n2)c1 [Compound 76] | 13.2
37 | CCOC(=O)c1cc(-c2cccc(CN(C)CCNC)c2)nc2c1cnn2C(C)C [Compound 78] | 18
38 | CNCCN(C)Cc1cccc(-c2cc(N3CCC3)c3cnn(C(C)C)c3n2)c1 [Compound 79] | 14.5

Row | SMILES | IC50 [nM]
39 | COc1ccccc1Cn1cnc2ccc(-c3ccc(CNCCN)cc3)cc21 [Compound 80] | 4810
40 | NCCNCc1ccc(-c2ccc3ncn(CC4CCCNC4)c3c2)cc1 (centres unmarked) [Compound 81] | 4270
41 | Cc1ccccc1Cn1cnc2ccc(-c3ccc(CNCCN)cc3)cc21 [Compound 82] | 8130
42 | CNCCN(C)Cc1cccc(-c2cc(C(=O)NCCC(=O)NCc3ccn(C)n3)c3cnn(C(C)C)c3n2)c1 [Compound 83] | 25.7
43 | CC(C)n1ncc2c(NC(=O)OCc3ccccc3)cc(-c3cccc(CN(C)CCN)c3)nc21 [Compound 84] | 13.7
44 | CNCCN(C)Cc1cccc(-c2cc(NC(=O)NC(C)C)c3cnn(C(C)C)c3n2)c1 [Compound 85] | 14
45 | CC(C)NC(=O)Nc1cc(-c2cccc(CN(C)CCN)c2)nc2c1cnn2C(C)C [Compound 86] | 8.11
46 | CNCCN(C)Cc1cccc(-c2cc(C(=O)NC3CCOCC3)c3cnn(C4CC4)c3n2)c1 [Compound 87] | 36.8
47 | CNCCN(C)Cc1cccc(-c2cc(C(=O)NCCCC(=O)NCc3ccn(C)n3)c3cnn(C(C)C)c3n2)c1 [Compound 88] | 16.5
48 | CNCCN(C)Cc1cccc(-c2ccc3ncn(C)c3c2)c1 [Compound 92] | 6490
49 | CNCCN(C)Cc1cccc(-c2cc(N3CCC(C#N)CC3)c3cnn(C(C)C)c3n2)c1 [Compound 93] | 10.6
50 | COc1cccc(CCn2cnc3ccc(-c4ccc(CNCCN)cc4)cc32)c1 [Compound 94] | 4270
51 | CNCCN(C)Cc1cccc(-c2cc(N(C)C3CC3)c3cnn(C(C)C)c3n2)c1 [Compound 95] | 36.5
52 | CN(CCN)Cc1cccc(-c2nc(NC3CC3)c3cnn(C4CC4)c3n2)c1 [Compound 96] | 8.42
53 | Cc1ccc(Cn2cnc3ccc(-c4ccc(CNCCN)cc4)cc32)cc1 [Compound 97] | 8190
54 | CNCCN(C)Cc1cccc(-c2cc(C(=O)NCc3ccccn3)c3cnn(C(C)C)c3n2)c1 [Compound 98] | 32.4
55 | CNCCN(C)Cc1cccc(-c2nc(N3CCOCC3)c3cnn(C(C)C)c3n2)c1 [Compound 99] | 11.3
56 | CNCCN(C)Cc1cccc(-c2ccc3cnn(C(C)C)c3c2)c1 [Compound 100] | 3700
